{
  "source": "patent US8063101B2",
  "about": "“Carotenoid analogs and derivatives for the prevention of platelet aggregation” (Cardax Pharmaceuticals, Inc., priority 2007, dated 2011)",
  "test_system": "platelet aggregation",
  "assay": "Ex vivo platelet aggregation induced with ADP or AA",
  "type": "in vivo, beagle dogs",
  "experimental": "Whole blood (10 ml) was drawn from a right femoral vein cannula into a plastic syringe containing 3.7% sodium citrate as the anticoagulant (1:100 volume ratio of citrate to blood). A whole blood cell count was determined with an H-2000 cell counter (Texas International Laboratories, Inc., Culver City, Calif.). Platelet-rich plasma (PRP), the supernatant present after centrifugation of whole blood at 100×g for 10 min, was diluted with Platelet-poor plasma (PPP) to achieve a platelet count of approximately […]. PPP was prepared by centrifuging the remaining blood at 1,500×g for 10 min and discarding the bottom cellular layer. Ex vivo platelet aggregation was assessed by established spectrophotometric methods with the use of a four-channel aggregometer (BioData PAP-4; BioData Corp., Horsham, Pa.) by recording the increase in light transmission through a stirred suspension of PRP maintained at 37° C. Aggregation was induced with ADP (20 μM) or AA (0.65 mM). A subaggregatory concentration of epinephrine (550 nM) was used to prime the platelets before addition of the agonists to induce platelet aggregation. Values for platelet aggregation are expressed as percentage of light transmission standardized to PRP and PPP samples yielding 0 and 100% light transmission, respectively.",
  "data": [
    {"smiles": "CC1=C(/C=C/C(C)=C/C=C/C(C)=C/C=C/C=C(C)/C=C/C=C(C)/C=C/C2=C(C)C(=O)C(OC(=O)CCC(=O)O)CC2(C)C)C(C)(C)CC(OC(=O)CCC(=O)O)C1=O", "note": "(centres unmarked) [DDA, Disodium disuccinate astaxanthin]", "values": [
      {"measurement": "ex vivo platelet aggregation responses to AA and ADP", "setting": "DDA 10, 30 or 50 mg/kg, ADP 20 μM or AA 0.65 mM", "result": "dose dependently attenuated"},
      {"measurement": "ex vivo platelet aggregation", "setting": "DDA 30 and 50 mg/kg doses", "result": "Significant reductions"}
    ]}
  ]
}
